Laboratory results published in PMC5429698, “Biochemical analysis of leishmanial and human GDP-Mannose Pyrophosphorylases and selection of inhibitors as new leads” (Scientific Reports, 2017).
Several values for one entry are separate records, joined by “and”; a condition that tells them apart may be missing. Equal entries are not always repeated. Where two headings read alike, the source gives them in different places.

What was measured:
[1] = tested on: L. donovani axenic amastigotes; test: Antileishmanial evaluation on axenic amastigotes (resazurin); type: cell-based; conditions: 72 h treatment, 37 °C, read-out: IC50 (µM) ± SD L. donovani axenic amastigotes
Protocol: (§1) The evaluations of activity on axenic and intramacrophage amastigotes were adapted from the protocols previously described. Briefly, for the evaluation on axenic amastigotes, two fold serial dilutions of the compounds from a maximal concentration of 100 µM were performed in 100 µl of complete medium (see above) in 96-well microplates. Axenic amastigotes were then added to each well at a density of 10^6/ml in a 200 µl final volume. After 72 h of treatment at 37 °C for L. donovani or at 32 °C for L. mexicana with 5% CO2, 20 µl of resazurin (450 µM) was added to each well and further incubated in the dark for 24 h at 37 °C for L. donovani or at 32 °C for L. mexicana with 5% CO2. In living cells, resazurin is reduced in resorufin and this conversion is monitored by measuring OD570nm (resorufin) and OD600nm (resazurin; Lab systems Multiskan MS). The activity of the compounds was expressed as IC50. Miltefosine was used as the reference drug.

[2] = tested on: L. mexicana axenic amastigotes; test: as above; type: cell-based
Protocol: as §1

[3] = Cytotoxicity (resazurin); type: cell-based; conditions: mouse, RAW264.7 macrophages; 48 h incubation; read-out: Cytotoxicity CC50 (µM) ± SD RAW264.7 macrophages
Protocol: (§2) Cells were plated in 96-well microplates at a density of 2 × 10^4 cells per well. After an incubation of 24 h at 37 °C with 5% CO2 for RAW264.7 cells or at 37 °C with 7% CO2 for BMDM, the medium was removed in each well, and 100 µl of DMEM complete medium containing two fold serial dilutions of the compounds was added to each well. […] Cell viability was then monitored as described above.

[4] = tested on: L. donovani intramacrophage amastigotes in infected RAW.264.7 macrophages; test: Antileishmanial evaluation on intramacrophage amastigotes, RAW264.7 host; type: cell-based; conditions: for Selectivity index (CC50/IC50) L. donovani RAW264.7 macrophages: CC50 RAW264.7 / IC50 infected RAW264.7; for IC50: 48 h treatment, read-out: IC50 (µM) ± SD L. donovani infected RAW.264.7 macrophages
Protocol: (§3) Concerning the evaluation on intramacrophage amastigotes, RAW 264.7 macrophages (from ATCC) and bone marrow derived macrophages (BMDM) were plated in 96-well microplates at a density of 2 × 10^4 cells per well and incubated for 24 h at 37 °C with 5% CO2 for RAW264.7 cells or at 37 °C with 7% CO2 for BMDM. Axenic amastigotes were differenciated as described above, centrifuged at 2,000 g for 10 min, resuspended in DMEM complete medium, and added to each well to reach a 16:1 parasite to macrophage ratio. After 24 h of infection at 37 °C with 5% CO2 for RAW264.7 cells or at 37 °C with 7% CO2 for BMDM, extracellular parasites were removed, and DMEM complete medium (100 µl) containing two fold serial dilutions of the compounds from a maximal concentration of 100 µM was added to each well. After 48 h of treatment, the medium was removed and replaced by DirectPCR Lysis Reagent (100 µl; Euromedex) before 3 freeze-thaw cycles at room temperature, addition of 50 µg/ml proteinase K, and a final incubation at 55 °C overnight to allow cell lysis. 10 µl of each cell extract was then added to 40 µl of DirectPCR Lysis reagent containing Sybr Green I (0.05%; Invitrogen). DNA fluorescence was monitored using Mastercycler® realplex (Eppendorf). The activity of the compounds was expressed as IC50. Miltefosine was used as the reference drug.

[5] = tested on: leishmanial GDP-MP (LdGDP-MP and/or LmGDP-MP); test: Screen of the 100 compound library at 100 µM on purified leishmanial GDP-MPs; type: biochemical, Leishmania; conditions: compound at 100 µM
Protocol: (§4) GDP-MP catalyzes the following reaction: Man‐1‐P+GTP→GDP−Mannose+Pyrophosphate The reaction media were buffered at pH optima and contained optimal concentrations of Man-1-P, GTP, GDP-MP and Mg^2+ determined for each purified GDP-MP (Fig. 2d), supplemented with DTT (1 mM). Inorganic pyrophosphatase, which hydrolyses the inorganic pyrophosphates generated by the GDP-MPs in inorganic phosphates, was added at 0.1 U/ml (Sigma-Aldrich). Inorganic pyrophosphatase was added in excess to the reaction medium in order to minimize the probability that the putative inhibitors of GDP-MPs interfere with this enzyme. The reaction was initiated by the addition of GDP-MP, and was stopped after adding 100 µl of revelation buffer containing malachite green (0.03% w/v), ammonium molybdate (0.2% w/v) and Triton X-100 (0.05% v/v) in HCl (0.7 M) for 5 min at the optimal temperature. The quantity of inorganic phosphate generated, representing GDP-MP activity, was determined by measuring OD650nm (Lab systems Multiskan MS). The molar extinction coefficient ε of the end product detected was determined by measuring OD650nm with a range of inorganic phosphate concentrations diluted in the revelation buffer and was calculated at 27207 M^−1 cm^−1 (Supplementary Fig. S2). The kinetic constants K m, V m and k cat were determined by non linear regression using GraphPad Prism 6.0.
(§5) Enzyme activity was measured as described above in the presence of 100 µM of compounds and the percentage of inhibition was calculated in reference to untreated enzyme. As a control, compounds were evaluated in parallel in the same conditions on inorganic pyrophosphatase alone in order to discard false-positives. […] Furthermore, no effect was observed on the activity of the three purified GDP-MPs with 1% DMSO, corresponding to the maximal solvent concentration used at 100 µM of compound. Compounds presenting a minimum of 50% inhibition on a leishmanial GDP-MP were subsequently selected to determine their type of inhibition and their K i values. Inhibition data were fitted to competitive, non-competitive or uncompetitive models of enzyme inhibition by non linear least squares regression analysis using GraphPad Prism 6.0.

[6] = Cytotoxicity (resazurin); type: cell-based, Balb/c mice; conditions: Balb/c, mouse, bone marrow derived macrophages (BMDM); 48 h incubation; read-out: Cytotoxicity CC50 (µM) ± SD BMDM
Protocol: as §2

[7] = tested on: L. mexicana intramacrophage amastigotes in infected RAW.264.7 macrophages; test: microbe, parasite or virus in culture; type: cell-based; conditions: for IC50: 48 h treatment, read-out: IC50 (µM) ± SD L. mexicana infected RAW.264.7 macrophages
Protocol: as §3

[8] = tested on: L. mexicana intramacrophage amastigotes in infected BMDM; test: microbe, parasite or virus in culture; type: cell-based; conditions: for IC50: Leishmania mexicana, BMDM, 48 h, 48 h treatment, read-out: IC50 (µM) ± SD L. mexicana infected BMDM
Protocol: as §3

[9] = target: LmGDP-MP (Leishmania mexicana, UniProt E9AW11); test: biochemical; type: biochemical; conditions: for Km: read-out: Km (µM) ± SD of LmGDP-MP
Chain of LmGDP-MP (E9AW11 entry or part of it): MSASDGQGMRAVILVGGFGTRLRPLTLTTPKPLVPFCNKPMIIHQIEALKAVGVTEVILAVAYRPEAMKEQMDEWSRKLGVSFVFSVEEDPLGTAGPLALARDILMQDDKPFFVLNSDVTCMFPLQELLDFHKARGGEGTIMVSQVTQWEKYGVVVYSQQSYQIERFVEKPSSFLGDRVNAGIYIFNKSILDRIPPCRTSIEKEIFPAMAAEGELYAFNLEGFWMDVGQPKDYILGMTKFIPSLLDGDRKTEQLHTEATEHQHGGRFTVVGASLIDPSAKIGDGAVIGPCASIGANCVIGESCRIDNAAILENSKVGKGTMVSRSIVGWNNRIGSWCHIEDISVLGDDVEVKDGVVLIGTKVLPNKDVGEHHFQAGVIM
Protocol: as §4, §5

[10] = tested on: L. donovani intramacrophage amastigotes in infected BMDM; test: Antileishmanial evaluation on intramacrophage amastigotes, BMDM host; type: cell-based; conditions: for Selectivity index (CC50/IC50) L. donovani BMDM: CC50 BMDM / IC50 infected BMDM; for IC50: Leishmania donovani, BMDM, 48 h treatment, read-out: IC50 (µM) ± SD L. donovani infected BMDM
Protocol: as §3

[11] = tested on: inorganic pyrophosphatase; test: Control for false positives on inorganic pyrophosphatase alone; type: biochemical; conditions: compound at 100 µM, same conditions as the GDP-MP assay
Protocol: as §5

[12] = target: T1, hGDP-MP (Homo sapiens, UniProt Q9Y5P6); test: GDP-MP enzymatic assay (malachite green) on purified hGDP-MP; type: biochemical
T1 construct: made in house; host or cells: E. coli BL21(DE3), co-transformed with chaperone plasmid pG-KJE3
T1 sequence (Q9Y5P6 whole entry): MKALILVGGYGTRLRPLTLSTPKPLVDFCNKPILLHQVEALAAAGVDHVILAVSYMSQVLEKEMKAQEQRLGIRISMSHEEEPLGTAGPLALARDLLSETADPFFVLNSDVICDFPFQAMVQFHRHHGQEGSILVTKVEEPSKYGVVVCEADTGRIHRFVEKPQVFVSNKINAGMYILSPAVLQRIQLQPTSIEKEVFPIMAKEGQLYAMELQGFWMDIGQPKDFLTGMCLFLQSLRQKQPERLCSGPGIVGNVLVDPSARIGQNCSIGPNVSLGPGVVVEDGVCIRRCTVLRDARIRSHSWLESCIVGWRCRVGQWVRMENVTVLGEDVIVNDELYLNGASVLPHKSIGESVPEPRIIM
Protocol: as §4, with “The reaction was initiated by the addition of GDP-MP, and was stopped after adding 100 µl of revelation buffer containing malachite green (0.03% w/v), ammonium molybdate (0.2% w/v) and Triton X-100 (0.05% v/v) in HCl (0.7 M) for 5 min at the optimal temperature.” left out
(§6) Enzyme activity was measured as described above in the presence of 100 µM of compounds and the percentage of inhibition was calculated in reference to untreated enzyme. […]

[13] = tested on: T. brucei GDP-MP; design: method as in PMID 19919534; conditions: cited from earlier work
[14] = tested on: L. major GDP-MP; design: method as in PMID 20160053; conditions: high throughput screening; cited from earlier work
[15] = tested on: L. major intramacrophage amastigotes; design: method as in PMID 20160053; conditions: cited from earlier work
[16] = target: LdGDP-MP (Leishmania donovani, UniProt E9BG32); test: biochemical; conditions: Man-1-P 10-100 µM, GTP 100 µM
Chain of LdGDP-MP (E9BG32 entry or part of it): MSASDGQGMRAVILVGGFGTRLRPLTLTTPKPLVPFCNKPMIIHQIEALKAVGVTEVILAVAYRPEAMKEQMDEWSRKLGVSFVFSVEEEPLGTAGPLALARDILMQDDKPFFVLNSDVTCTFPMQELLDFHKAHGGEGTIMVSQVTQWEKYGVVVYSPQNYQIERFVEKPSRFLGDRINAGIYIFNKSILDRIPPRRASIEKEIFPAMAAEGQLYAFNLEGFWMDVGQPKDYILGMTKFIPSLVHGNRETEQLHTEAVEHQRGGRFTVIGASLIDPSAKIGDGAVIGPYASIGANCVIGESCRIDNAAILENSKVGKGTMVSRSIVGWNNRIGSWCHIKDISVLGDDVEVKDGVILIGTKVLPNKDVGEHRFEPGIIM
Protocol: as §4, with “The reaction was initiated by the addition of GDP-MP, and was stopped after adding 100 µl of revelation buffer containing malachite green (0.03% w/v), ammonium molybdate (0.2% w/v) and Triton X-100 (0.05% v/v) in HCl (0.7 M) for 5 min at the optimal temperature.” left out
as §6

[17] = Leishmania mexicana, 72 h, 72 h treatment, 32 °C, read-out: IC50 (µM) ± SD L. mexicana axenic amastigotes
[18] = Leishmania donovani, RAW264.7, 48 h
[19] = CC50 RAW264.7 / IC50 infected RAW264.7
[20] = Leishmania mexicana, RAW264.7, 48 h

SMILES	IC50 ([1]; Leishmania donovani, 72 h)	IC50 [2, 17]	CC50 at 48 h [3]	Selectivity index (CC50/IC50) L. donovani RAW264.7 macrophages [4]	IC50 [4, 18]	enzyme inhibition on a leishmanial GDP-MP [5]	CC50 at 48 h [6]	Selectivity index (CC50/IC50) L. mexicana RAW264.7 macrophages [7, 19]	IC50 [7, 20]	Selectivity index (CC50/IC50) L. mexicana BMDM ([8]; CC50 BMDM / IC50 infected BMDM)	IC50 [8]	Ki [9]	Selectivity index (CC50/IC50) L. donovani BMDM [10]	IC50 [10]	inhibition of inorganic pyrophosphatase [11]	further results
Clc1ccc2nc(COCCn3cc(-c4ccc(-c5ccccc5)cc4)nn3)ccc2c1 [compound 92]	> 100 µM	43.1 ± 3.42 µM	> 100 µM	>2.4	41.6 ± 14 µM	above 50%	77.5 ± 5.34 µM	>12.1	< 10 µM	1.0	79.3 ± 9.76 µM	16 ± 3.51 µM	0.9	82.5 ± 7.61 µM	< 5%	IC50 [7]: 8.25 ± 1.07 µM
O=c1[nH]cnc2c1ncn2[C@@H]1O[C@H](COP(=O)(O)OP(=O)(O)OP(=O)(O)O)[C@@H](O)[C@H]1O [ITP]																LmGDP-MP activity with substrate analogue compared to GTP ([9]; NTP at 100 µM): 22–24%; hGDP-MP activity with substrate analogue compared to GTP ([12]; NTP at 100 µM): 22–24% and 24%
Nc1nc2c(ncn2C2OC(Cn3cc(-c4ccc(-c5ccccc5)cc4)nn3)C(O)C2O)c(=O)[nH]1 (centres unmarked) [compound 83]	> 100 µM	30.6 ± 3.29 µM	> 100 µM	>1.9	51.9 ± 7.49 µM	above 50%	23.8 ± 1.98 µM	>2.2	45.4 ± 6.21 µM	0.9	25.9 ± 5.37 µM	25.4 ± 4.23 µM	0.9	27.1 ± 2.04 µM	< 5%	
Nc1ncnc2c1ncn2[C@@H]1O[C@H](COP(=O)(O)OP(=O)(O)OP(=O)(O)O)[C@@H](O)[C@H]1O [ATP]																Km [13]: 290 µM
O=P(O)(O)OC1O[C@H](CO)[C@@H](O)[C@H](O)[C@@H]1O (some centres unmarked) [Man-1-P, mannose-1-phosphate]																Km [9]: 11.6 ± 1.76 µM
CC(C)(C)c1ccc(CN2CCN(c3ccnc4cc(Cl)ccc34)CC2)cc1 [compound 100, reference compound]	30 to 50 µM	30 to 50 µM	62.1 ± 7.39 µM	3.2	20 to 27.5 µM	above 50%	51.4 ± 3.45 µM	2.3	20 to 27.5 µM	4.3	12.1 ± 1.27 µM		4.2	12.2 ± 4.74 µM	< 5%	IC50 [1]: 30.7 ± 6.62 µM; IC50 ([2]; 72 h treatment, 32 °C, read-out: IC50 (µM) ± SD L. mexicana axenic amastigotes): 49.25 ± 0.26 µM; IC50 [14]: 0.58 µM; IC50 [15]: 21.9 µM; IC50 [4]: 19.5 ± 4.53 µM; Ki [16]: 61.8 ± 16.3 µM; IC50 [7]: 27.5 ± 2.23 µM; Ki ([12]; Man-1-P 10-100 µM, GTP 100 µM): 19.7 µM and ~20 µM
Nc1nc2c(ncn2[C@@H]2O[C@H](COP(=O)(O)OP(=O)(O)OP(=O)(O)O)[C@@H](O)[C@H]2O)c(=O)[nH]1 [GTP]																Km ([9]; other substrate held constant at 80 µM): 7.67 ± 2.28 µM
CCCCCCCCCCCCCCCCOP(=O)([O-])OCC[N+](C)(C)C [Miltefosine, reference compound]	2.08 ± 0.24 µM		> 25 µM		1.83 ± 0.22 µM		> 25 µM		52.6 ± 4.98 µM		51.4 ± 5.34 µM		>30.1	0.83 ± 0.12 µM		IC50 ([2]; Leishmania mexicana, 72 h, read-out: IC50 (µM) ± SD L. mexicana axenic amastigotes, 72 h treatment, 32 °C): 23.7 ± 2.81 µM; Selectivity index (CC50/IC50) L. mexicana RAW264.7 macrophages [7]: >0.5; Selectivity index (CC50/IC50) L. mexicana BMDM [8]: >0.5
O=C(NCc1ccccc1)c1ccc2nc(-c3ccccc3)c(-c3ccccc3)nc2c1 [compound 46]	> 100 µM	7.69 ± 0.56 µM	> 100 µM		> 100 µM	above 50%	13.1 ± 1.67 µM	>8.5	11.7 ± 1.13 µM	0.8	15.7 ± 3.48 µM	25.6 ± 3.46 µM	1.0	12.5 ± 0.93 µM	< 5%	
